This is an account of results in the supplement of paper PMC10307832.

What all share (experiment): relative viability (nuclei count vs DMSO), 5 days (fraction); higher = more cells survive
Compound in experiment [1]: C1=CC2=C(C=C(C(=C2N=C1)O)N=NC3=CC4=C(C=C3)C=C(C=C4)S(=O)(=O)O)S(=O)(=O)O + Nc1ncn([C@H]2C[C@H](O)[C@@H](CO)O2)c(=O)n1 [Decitabine] (partner 2 µM)
The method in brief: (§1)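 Lung cancer cell lines in 1536-well plates were dosed by pin tool the day after seeding, either with one drug alone or with a fixed anchor-drug dose plus five library-drug doses (not always all listed) in √10 steps. After 5 days, cells were fixed and their nuclei stained in one step (final 0.05% Triton X-100, 1% formaldehyde, 1 ug/ml Hoechst), then counted on 4× images. Relative viability is the nuclei count in treated wells divided by that in vehicle wells. Values are medians of duplicate plates.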

Compound in experiment [2]: C1=CC2=C(C=C(C(=C2N=C1)O)N=NC3=CC4=C(C=C3)C=C(C=C4)S(=O)(=O)O)S(=O)(=O)O + O=C(CCCCCCC(=O)Nc1ccccc1)NO [Vorinostat] (partner 1 µM)
An outline of the steps:
as §1

Compound in the experiment “AT-7519 + Lapatinib”: O=C(NC1CCNCC1)c1n[nH]cc1NC(=O)c1c(Cl)cccc1Cl [AT-7519] + CS(=O)(=O)CCNCc1ccc(-c2ccc3ncnc(Nc4ccc(OCc5cccc(F)c5)c(Cl)c4)c3c2)o1 [Lapatinib] (partner 2 µM)
The method in brief: as §1

Compound in the experiment “AT-7519 + Alpelisib”: O=C(NC1CCNCC1)c1n[nH]cc1NC(=O)c1c(Cl)cccc1Cl [AT-7519] + Cc1nc(NC(=O)N2CCC[C@H]2C(N)=O)sc1-c1ccnc(C(C)(C)C(F)(F)F)c1 [Alpelisib] (partner 2 µM)
The method in brief:
as §1

With NCI-H358, the relative viability in experiment [1] (first compound 0.08 µM) stood at 0.245; in experiment [1] (first compound 0.253 µM), 0.216; in experiment [1] (first compound 0.8 µM), 0.218; in experiment [1] (first compound 2.53 µM), 0.203; in experiment [1] (first compound 8 µM), 0.132; in experiment [2] (first compound 0.08 µM), 0.676. The relative viability in experiment [2] (first compound 0.253 µM) was 0.711; in experiment [2] (first compound 0.8 µM), 0.628; in experiment [2] (first compound 2.53 µM), 0.748; in experiment [2] (first compound 8 µM), 0.701; in the experiment with AT-7519 + Lapatinib (first compound 0.01 µM), 0.406; in the experiment with AT-7519 + Lapatinib (first compound 0.03162 µM), 0.447. For the same cell line, the relative viability with AT-7519 + Lapatinib (first compound 0.3162 µM) turned out to be 0.335; with AT-7519 + Lapatinib (first compound 1 µM), 0.198; with AT-7519 + Alpelisib (first compound 0.01 µM), 0.948; with AT-7519 + Alpelisib (first compound 0.03162 µM), 0.712; in the experiment with AT-7519 + Alpelisib (first compound 0.3162 µM), 0.431; with AT-7519 + Alpelisib (first compound 1 µM), 0.179.

Regarding NCI-H460, the relative viability in experiment [1] (first compound 0.08 µM) is 0.506; in experiment [1] (first compound 0.253 µM) it was 0.487; in experiment [1] (first compound 0.8 µM), 0.501; in experiment [1] (first compound 2.53 µM), 0.497; in experiment [1] (first compound 8 µM) it was 0.387; in experiment [2] (first compound 0.08 µM), 0.955. The relative viability was determined as 0.66 in experiment [2] (first compound 0.253 µM); 0.684 in experiment [2] (first compound 0.8 µM); 0.708 in experiment [2] (first compound 2.53 µM); 0.71 in experiment [2] (first compound 8 µM); 1.71 with AT-7519 + Lapatinib (first compound 0.01 µM); 0.877 with AT-7519 + Lapatinib (first compound 0.03162 µM). Further, the relative viability in the experiment with AT-7519 + Lapatinib (first compound 0.3162 µM) was found to be 0.0532; with AT-7519 + Lapatinib (first compound 1 µM), 0.013; with AT-7519 + Alpelisib (first compound 0.01 µM) it was 0.667; in the experiment with AT-7519 + Alpelisib (first compound 0.03162 µM), 0.526; with AT-7519 + Alpelisib (first compound 0.3162 µM), 0.322; with AT-7519 + Alpelisib (first compound 1 µM), 0.0207.

With NCI-H520, the relative viability is 0.525 in experiment [1] (first compound 0.08 µM); 0.519 in experiment [1] (first compound 0.253 µM); 0.542 in experiment [1] (first compound 0.8 µM); 0.468 in experiment [1] (first compound 2.53 µM); 0.508 in experiment [1] (first compound 8 µM); 0.66 in experiment [2] (first compound 0.08 µM). Moreover, the relative viability in experiment [2] (first compound 0.253 µM) came out at 0.662; in experiment [2] (first compound 0.8 µM), 0.761; in experiment [2] (first compound 2.53 µM), 0.681; in experiment [2] (first compound 8 µM), 0.753; in the experiment with AT-7519 + Lapatinib (first compound 0.01 µM), 0.922; in the experiment with AT-7519 + Lapatinib (first compound 0.03162 µM) it was 0.638. Further, the relative viability in the experiment with AT-7519 + Lapatinib (first compound 0.3162 µM) came out at 0.587; with AT-7519 + Lapatinib (first compound 1 µM), 0.283; in the experiment with AT-7519 + Alpelisib (first compound 0.01 µM), 0.81; with AT-7519 + Alpelisib (first compound 0.03162 µM), 0.847; in the experiment with AT-7519 + Alpelisib (first compound 0.3162 µM) it was 0.884; with AT-7519 + Alpelisib (first compound 1 µM), 0.478.

Regarding NCI-H596, the relative viability in experiment [1] (first compound 0.08 µM) worked out at 1.1; in experiment [1] (first compound 0.253 µM) it was 0.954; in experiment [1] (first compound 0.8 µM) it was 1.01; in experiment [1] (first compound 2.53 µM), 1.02; in experiment [1] (first compound 8 µM), 1.38; in experiment [2] (first compound 0.08 µM), 0.544. The relative viability came to 0.645 in experiment [2] (first compound 0.253 µM); 0.545 in experiment [2] (first compound 0.8 µM); 0.613 in experiment [2] (first compound 2.53 µM); 0.649 in experiment [2] (first compound 8 µM); 1.05 with AT-7519 + Lapatinib (first compound 0.01 µM); 1.11 with AT-7519 + Lapatinib (first compound 0.03162 µM). Besides, the relative viability with AT-7519 + Lapatinib (first compound 0.3162 µM) turned out to be 1.02; in the experiment with AT-7519 + Lapatinib (first compound 1 µM) it was 0.767; with AT-7519 + Alpelisib (first compound 0.01 µM), 0.485; with AT-7519 + Alpelisib (first compound 0.03162 µM) it was 0.548; with AT-7519 + Alpelisib (first compound 0.3162 µM) it was 0.191; with AT-7519 + Alpelisib (first compound 1 µM), 0.41.

Consider NCI-H647, for which the relative viability in experiment [1] (first compound 0.08 µM) was 0.35; in experiment [1] (first compound 0.253 µM) it was 0.412; in experiment [1] (first compound 0.8 µM) it was 0.415; in experiment [1] (first compound 2.53 µM), 0.45; in experiment [1] (first compound 8 µM), 0.401; in experiment [2] (first compound 0.08 µM), 0.646. Also, the relative viability in experiment [2] (first compound 0.253 µM) turned out to be 0.607; in experiment [2] (first compound 0.8 µM), 0.563; in experiment [2] (first compound 2.53 µM), 0.639; in experiment [2] (first compound 8 µM), 0.437; in the experiment with AT-7519 + Lapatinib (first compound 0.01 µM), 1.02; in the experiment with AT-7519 + Lapatinib (first compound 0.03162 µM), 1. For the same cell line, the relative viability with AT-7519 + Lapatinib (first compound 0.3162 µM) turned out to be 0.937; with AT-7519 + Lapatinib (first compound 1 µM), 0.291; with AT-7519 + Alpelisib (first compound 0.01 µM), 1.13; with AT-7519 + Alpelisib (first compound 0.03162 µM) it was 1.07; with AT-7519 + Alpelisib (first compound 0.3162 µM) it was 0.967; in the experiment with AT-7519 + Alpelisib (first compound 1 µM), 0.53.

Consider NCI-H650, for which the relative viability in experiment [1] (first compound 0.08 µM) stood at 0.324; in experiment [1] (first compound 0.253 µM) it was 0.354; in experiment [1] (first compound 0.8 µM), 0.329; in experiment [1] (first compound 2.53 µM), 0.317; in experiment [1] (first compound 8 µM), 0.31; in experiment [2] (first compound 0.08 µM), 0.435. Moreover, the relative viability in experiment [2] (first compound 0.253 µM) stood at 0.472; in experiment [2] (first compound 0.8 µM) it was 0.416; in experiment [2] (first compound 2.53 µM) it was 0.413; in experiment [2] (first compound 8 µM), 0.175; in the experiment with AT-7519 + Lapatinib (first compound 0.01 µM), 0.923; in the experiment with AT-7519 + Lapatinib (first compound 0.03162 µM), 0.841. Moreover, the relative viability is 0.781 in the experiment with AT-7519 + Lapatinib (first compound 0.3162 µM); 0.75 with AT-7519 + Lapatinib (first compound 1 µM); 1.09 with AT-7519 + Alpelisib (first compound 0.01 µM); 1 with AT-7519 + Alpelisib (first compound 0.03162 µM); 1.09 with AT-7519 + Alpelisib (first compound 0.3162 µM); 1.08 with AT-7519 + Alpelisib (first compound 1 µM).

Turning to NCI-H661, the relative viability in experiment [1] (first compound 0.08 µM) was 0.566; in experiment [1] (first compound 0.253 µM) it was 0.446; in experiment [1] (first compound 0.8 µM), 0.58; in experiment [1] (first compound 2.53 µM), 0.551; in experiment [1] (first compound 8 µM) it was 0.573; in experiment [2] (first compound 0.08 µM), 0.765. Further, the relative viability came out at 0.756 in experiment [2] (first compound 0.253 µM); 0.783 in experiment [2] (first compound 0.8 µM); 0.785 in experiment [2] (first compound 2.53 µM); 0.796 in experiment [2] (first compound 8 µM); 0.348 in the experiment with AT-7519 + Lapatinib (first compound 0.01 µM); 0.383 in the experiment with AT-7519 + Lapatinib (first compound 0.03162 µM). Further, the relative viability turned out to be 0.385 with AT-7519 + Lapatinib (first compound 0.3162 µM); 0.322 with AT-7519 + Lapatinib (first compound 1 µM); 0.488 with AT-7519 + Alpelisib (first compound 0.01 µM); 0.445 with AT-7519 + Alpelisib (first compound 0.03162 µM); 0.758 with AT-7519 + Alpelisib (first compound 0.3162 µM); 0.506 with AT-7519 + Alpelisib (first compound 1 µM).

NCI-H727: the relative viability in experiment [1] (first compound 0.08 µM) is 0.951; in experiment [1] (first compound 0.253 µM), 0.854; in experiment [1] (first compound 0.8 µM), 0.793; in experiment [1] (first compound 2.53 µM), 0.929; in experiment [1] (first compound 8 µM), 0.801; in experiment [2] (first compound 0.08 µM), 1.13. Moreover, the relative viability was 1.26 in experiment [2] (first compound 0.253 µM); 1.09 in experiment [2] (first compound 0.8 µM); 1.12 in experiment [2] (first compound 2.53 µM); 1.09 in experiment [2] (first compound 8 µM); 0.641 in the experiment with AT-7519 + Lapatinib (first compound 0.01 µM); 0.82 with AT-7519 + Lapatinib (first compound 0.03162 µM). Moreover, the relative viability in the experiment with AT-7519 + Lapatinib (first compound 0.3162 µM) is 0.486; with AT-7519 + Lapatinib (first compound 1 µM) it was 0.235; with AT-7519 + Alpelisib (first compound 0.01 µM) it was 0.649; with AT-7519 + Alpelisib (first compound 0.03162 µM), 0.486; in the experiment with AT-7519 + Alpelisib (first compound 0.3162 µM), 0.546; with AT-7519 + Alpelisib (first compound 1 µM), 0.226.
